# Test results as given in US6852759B2, “Process for the synthesis of trans-alkenoic acids, use thereof” (priority 2002, dated 2005).
# How the values were obtained:
# Type in all cases: in vivo
# [1] = system: acetaminophen (APAP) in mice; experiment: Hepatoprotective activity, prophylactic study, acetaminophen (APAP) after diethyl-ether
# [2] = system: D-Galactosamine (Gal N) induced hepatic injury in rats; experiment: Hepatoprotective activity, prophylactic study, D-Galactosamine
# [3] = system: CCl4 induced hepatic injury in rats; experiment: Hepatoprotective activity, curative study, CCl4; settings: 12.5 mg/kg p.o. + CCl4, curative
# [4] = 12.5 mg/kg p.o. + APAP, prophylactic
# [5] = 25 mg/kg p.o. + APAP, prophylactic
# [6] = 50 mg/kg p.o. + APAP, prophylactic
# [7] = 100 mg/kg p.o. + APAP, prophylactic
# [8] = TCA alone 100 mg/kg p.o., no APAP, prophylactic study
# [9] = 12.5 mg/kg p.o. + Gal N, prophylactic
# [10] = 25 mg/kg p.o. + Gal N, prophylactic
# [11] = 50 mg/kg p.o. + Gal N, prophylactic
# [12] = TCA alone 100 mg/kg p.o., no Gal N, prophylactic study
smiles,measurement,setting,value
"CCCCCCCC/C=C/CCCCCCCCCCCCCC(=O)O [TCA, t-Tetracos-15-enoic acid]",Serum ALP,[1]; [4],50.41 ± 3.07 μmole of p-nitrophenel formed/min/L
same,"Serum ALP, hepatoprotective activity percent",[1]; [4],(21.27 ± 9.50) percent
same,Serum GOT,[1]; [4],1079.43 ± 98.66 Units
same,"Serum GOT, hepatoprotective activity percent",[1]; [4],(25.66 ± 7.72) percent
same,Serum GPT,[1]; [4],2182.19 ± 137.86 Units
same,"Serum GPT, hepatoprotective activity percent",[1]; [4],(22.86 ± 5.31) percent
same,Serum Triglycerides,[1]; [4],14.72 ± 0.68 mg %
same,"Serum Triglycerides, hepatoprotective activity percent",[1]; [4],(28.28 ± 8.27) percent
same,Serum ALP,[1]; [5],46.23 ± 1.73 μmole of p-nitrophenel formed/min/L
same,"Serum ALP, hepatoprotective activity percent",[1]; [5],(34.15 ± 5.39) percent
same,Serum GOT,[1]; [5],880.10 ± 60.29 Units
same,"Serum GOT, hepatoprotective activity percent",[1]; [5],(41.26 ± 4.72) percent
same,Serum GPT,[1]; [5],1696.53 ± 48.31 Units
same,"Serum GPT, hepatoprotective activity percent",[1]; [5],(41.57 ± 1.86) percent
same,Serum Triglycerides,[1]; [5],13.47 ± 0.89 mg %
same,"Serum Triglycerides, hepatoprotective activity percent",[1]; [5],(43.32 ± 10.80) percent
same,Serum ALP,[1]; [6],41.44 ± 1.27 μmole of p-nitrophenel formed/min/L
same,"Serum ALP, hepatoprotective activity percent",[1]; [6],(49.04 ± 3.94) percent
same,Serum GOT,[1]; [6],619.36 ± 88.89 Units
same,"Serum GOT, hepatoprotective activity percent",[1]; [6],(61.67 ± 6.96) percent
same,Serum GPT,[1]; [6],1066.99 ± 118.14 Units
same,"Serum GPT, hepatoprotective activity percent",[1]; [6],(65.82 ± 4.55) percent
same,Serum Triglycerides,[1]; [6],12.34 ± 0.85 mg %
same,"Serum Triglycerides, hepatoprotective activity percent",[1]; [6],(56.84 ± 10.23) percent
same,Serum ALP,[1]; [7],35.08 ± 2.18 μmole of p-nitrophenel formed/min/L
same,"Serum ALP, hepatoprotective activity percent",[1]; [7],(68.82 ± 6.78) percent
same,Serum GOT,[1]; [7],310.53 ± 45.32 Units
same,"Serum GOT, hepatoprotective activity percent",[1]; [7],(85.85 ± 4.25) percent
same,Serum GPT,[1]; [7],539.60 ± 51.65 Units
same,"Serum GPT, hepatoprotective activity percent",[1]; [7],(86.13 ± 1.99) percent
same,Serum Triglycerides,[1]; [7],10.87 ± 0.69 mg %
same,"Serum Triglycerides, hepatoprotective activity percent",[1]; [7],(74.48 ± 8.37) percent
same,Serum ALP,[1]; [8],27.15 ± 2.92 μmole of p-nitrophenel formed/min/L
same,Serum GOT,[1]; [8],106.86 ± 30.15 Units
same,Serum GPT,[1]; [8],146.00 ± 32.15 Units
same,Serum Triglycerides,[1]; [8],7.77 ± 0.56 mg %
same,Serum ALP,[2]; [9],47.07 ± 2.98 μmole of p-nitrophenol formed/min/L
same,"Serum ALP, hepatoprotective activity percent",[2]; [9],(30.88 ± 7.77) percent
same,Serum Bilirubin,[2]; [9],0.56 ± 0.03 mg %
same,"Serum Bilirubin, hepatoprotective activity percent",[2]; [9],(39.49 ± 4.59) percent
same,Serum GOT,[2]; [9],613.20 ± 65.19 Units
same,"Serum GOT, hepatoprotective activity percent",[2]; [9],(34.60 ± 7.57) percent
same,Serum GPT,[2]; [9],743.62 ± 66.83 Units
same,"Serum GPT, hepatoprotective activity percent",[2]; [9],(39.30 ± 6.25) percent
same,Serum Triglycerides,[2]; [9],26.49 ± 1.88 mg %
same,"Serum Triglycerides, hepatoprotective activity percent",[2]; [9],(37.38 ± 6.18) percent
same,Serum ALP,[2]; [10],40.49 ± 2.29 μmole of p-nitrophenol formed/min/L
same,"Serum ALP, hepatoprotective activity percent",[2]; [10],(51.62 ± 6.31) percent
same,Serum Bilirubin,[2]; [10],0.44 ± 0.05 mg %
same,"Serum Bilirubin, hepatoprotective activity percent",[2]; [10],(58.00 ± 3.86) percent
same,Serum GOT,[2]; [10],505.26 ± 29.63 Units
same,"Serum GOT, hepatoprotective activity percent",[2]; [10],(47.68 ± 3.99) percent
same,Serum GPT,[2]; [10],635.11 ± 54.67 Units
same,"Serum GPT, hepatoprotective activity percent",[2]; [10],(49.35 ± 5.16) percent
same,Serum Triglycerides,[2]; [10],23.58 ± 2.02 mg %
same,"Serum Triglycerides, hepatoprotective activity percent",[2]; [10],(46.97 ± 6.67) percent
same,Serum ALP,[2]; [11],34.94 ± 1.43 μmole of p-nitrophenol formed/min/L
same,"Serum ALP, hepatoprotective activity percent",[2]; [11],(66.91 ± 3.92) percent
same,Serum Bilirubin,[2]; [11],0.36 ± 0.02 mg %
same,"Serum Bilirubin, hepatoprotective activity percent",[2]; [11],(70.76 ± 2.78) percent
same,Serum GOT,[2]; [11],406.05 ± 25.82 Units
same,"Serum GOT, hepatoprotective activity percent",[2]; [11],(61.05 ± 3.48) percent
same,Serum GPT,[2]; [11],413.53 ± 23.94 Units
same,"Serum GPT, hepatoprotective activity percent",[2]; [11],(70.34 ± 2.25) percent
same,Serum Triglycerides,[2]; [11],21.37 ± 1.51 mg %
same,"Serum Triglycerides, hepatoprotective activity percent",[2]; [11],(54.25 ± 4.97) percent
same,Serum ALP,[2]; [12],19.84 ± 1.58 μmole of p-nitrophenol formed/min/L
same,Serum Bilirubin,[2]; [12],0.20 ± 0.02 mg %
same,Serum GOT,[2]; [12],122.47 ± 11.84 Units
same,Serum GPT,[2]; [12],95.22 ± 8.74 Units
same,Serum Triglycerides,[2]; [12],8.79 ± 0.55 mg %
same,Serum ALP,[3],51.81 ± 3.94^NS μmole of p-nitrophenol formed/min/L
same,"Serum ALP, hepatoprotective activity percent",[3],(27.87 ± 9.48) percent
same,Serum Bilirubin,[3],0.54 ± 0.02 mg %
same,"Serum Bilirubin, hepatoprotective activity percent",[3],(44.52 ± 3.66) percent
same,Serum GOT,[3],524.23 ± 34.93 Units
